# Experimental data published in the OPERA property sets (Mansouri et al. 2018).
# Where a SMILES comes first, the peptide text is derived from it.
row,SMILES,logP
1,CC(C)NC(=S)NS(=O)(=O)c1cnccc1NC1CCCCCCC1,4.2
2,Brc1cc(Br)c2ccc3cccc4ccc1c2c43,6.85
3,Cc1cc(Cl)c(C(C)C)c(Cl)c1Cl,6.2
4,CCNc1nc(N)nc(O)n1,1.08
5,c1ccc(Nc2ncnc3nc[nH]c23)cc1,2.12
6,CCOC1N=C(c2ccccc2)c2cc(Cl)ccc2N(CCCl)C1=O (centres undefined),3.95
7,Clc1ccccc1N1CCN(CCn2nc3ccccc3n2)CC1,4
8,CC(C)NCC(O)COc1ccccc1C1CCCCC1 (centres undefined),3.68
9,CC(C)NC(=NC#N)NS(=O)(=O)c1cnccc1Nc1cccc(I)c1,2.51
10,O=C(NC1CCCCCC1)NS(=O)(=O)c1cnccc1NC1CCCCCCC1,5.35
11,Cc1cc(=O)c(O)c(CNC(=O)C(C)C)n1C,-0.35
12,Cc1ccc(CO)c(C=NNC(=O)c2ccc(N)cc2)c1O,2.16
13,NC(Cc1ccc(O)cc1)C(=O)NC(Cc1ccc(O)cc1)C(=O)O (stereo not drawn) (H-Tyr-Tyr-OH; configuration not given here),-1.87
14,Cc1ccc(S(=O)(=O)C(=Cc2ccccc2)C(=O)OC(C)C)cc1,3.92
15,CC(C)Nc1ncnc2c1ncn2C1OC(CO)C(O)C1O (centres undefined),0.48
16,COC(=O)C1=C(C)NC(C)=C(C(=O)OCc2cccnc2)C1c1cccc2c1OCO2 (centres undefined),3.61
17,CN1CCCNCC1,-0.4
18,Cc1cccc(C)c1OCCN(C)C,2.74
19,Cn1c([N+](=O)[O-])cnc1-c1ccc(F)cc1,1.83
20,C=C1C(=O)OC2CC(C)C3C4CC(=O)C3(CC12)C1(C4)C(=O)OC2CC(C)C3C=CC(=O)C3(C)C(O)C21 (centres undefined),1.66
21,COc1ccc2cc(C(C)C(=O)OCCCOC(C)=O)ccc2c1 (centres undefined),3.3
22,CC(C)(C)NCC(O)CON=C(C1CC1)C1CC1 (centres undefined),1.84
23,O=C(NC(Cc1c[nH]c2ccccc12)C(=O)O)OCC1c2ccccc2-c2ccccc21 (centres undefined),4.93
24,Cc1cc2c(o1)c(C)cc1ccc(=O)oc12,2.85
25,CCC(C)C(N)C(=O)NC(C(=O)NC(C(=O)NC(C(=O)O)C(C)C)C(C)C)C(C)CC (centres undefined) (H-IIVV-OH; configuration not given here),-1.41

row,SMILES,logP
1,Cc1ccc(OC(=O)CNC(=O)c2ccccc2)c(C)c1,3.4
2,CCc1cccc(C)c1NC(=O)OC,1.99
3,CCC(C)C(NC(=O)C(Cc1ccccc1)NC(=O)C(CCSC)NC(=O)C(N)C(C)C)C(=O)O (centres undefined) (H-VMFI-OH; configuration not given here),-0.63
4,Cc1cc(C)c2c(c1)COP(=O)(OCC1C=CC(n3cc(C)c(=O)[nH]c3=O)O1)O2 (centres undefined),1.18
5,O=C(O)Cc1ccccc1Nc1cc(Cl)cc(Cl)c1,5.07
6,Cn1c(N)nc2c3cccnc3ccc21,1.47
7,CC(=O)c1cccc(CNc2[nH]cnc3ncnc2-3)c1,1.73
8,Cc1cc2c(ccc3c(C)c(C)c(=O)oc32)o1,3.27
9,CCCCCNc1ncnc2c1ncn2C1OC(CO)C(O)C1O (centres undefined),1.67
10,CN(C)C(C)(C)O,0.2
11,Cc1nc2ccccc2c(=O)n1CC(=O)N1CCCCC1,1.27
12,Nc1nnnn1-c1c(Cl)cccc1Cl,1.56
13,CCCN(CCC)C1CCc2c(O)cccc2C1C (centres undefined),4.06
14,Cc1ccccc1-n1nnnc1N,0.93
15,CN1CCN(C2=NC(=O)N(c3ccc(Cl)cc3)C2)CC1,2.2
16,CCN(CC)CCC(=O)Nc1c(C)cc(N)cc1C,0.93
17,Cc1ccc(C(=O)OCCCn2ccc(=O)c(O)c2C)cn1,0.28
18,COc1ccc(O)c(C2=NC(C(=O)O)CS2)c1 (centres undefined),1.6
19,Cc1[nH]c2ccccc2c1Cc1n[nH]c(=S)n1-c1ccccc1,2.55
20,CC(C)NC(=NC#N)NS(=O)(=O)c1cnccc1NCc1ccccc1,1.36
21,Cc1ccc(C(=O)OCCCn2ccc(=O)c(O)c2C)cc1,1.79
22,CCCCCOCCCNc1ncnc2c1ncn2C1OC(CO)C(O)C1O (centres undefined),1.82
23,COc1ccc(C2Cc3c(ccc(Br)c3OC)N(CCN(C)C)C(=O)C2C)cc1 (centres undefined),5.4
24,CC(=O)OCOC(=O)N(C)N=Nc1ccc(C#N)cc1,2.08
25,[O-][n+]1ccc(-c2ccccc2)cc1,0.93

row,SMILES,logP
1,CC(C)C(N)C(=O)NCC(=O)NC(Cc1ccccc1)C(=O)NC(Cc1ccccc1)C(=O)O (centres undefined) (H-VGFF-OH; configuration not given here),-0.51
2,CC(C)CC(NC(=O)C(N)Cc1c[nH]c2ccccc12)C(=O)O (centres undefined),-0.73
3,COc1cc(Cl)cc(Cl)c1O,2.86
4,NC(Cc1ccccc1)C(=O)NC(Cc1ccccc1)C(=O)NC(Cc1ccccc1)C(=O)O (stereo not drawn) (H-Phe-Phe-Phe-OH; configuration not given here),-0.02
5,O=c1[nH]c2cc(Cl)ccc2c(O)c1-c1cccc(Oc2ccccc2)c1,5.1
6,CCN(CC)c1ccc(NC(=O)N(C)OC)cc1,2.33
7,CSCCC(N)C(=O)NC(C(=O)O)C(C)C (stereo not drawn) (H-Met-Val-OH; configuration not given here),-2.53
8,Cc1ccc(S(=O)(=O)C2(C(=O)OC(C)C)CCCCC2)cc1,3.21
9,O=C(Cc1ccccc1)Nc1[nH]cnc2ncnc1-2,1.19
10,CC(C)c1cccc(C(C)C)c1NC(=O)CC(=O)C1(c2ccccc2)CCCC1,4.55
11,CN(C)CCC(c1ccccc1)c1ccccc1,4.31
12,CCNCc1ccc(C)cc1,2.38
13,CC(C)Nc1[nH]cnc2ncnc1-2,1.38
14,CC(CO)N(C)C (centres undefined),0.16
15,c1ccc(CCCc2ccccc2)cc1,3.43
16,CCOC(=O)C(Cc1ccccc1)(Cc1ccccc1)S(=O)(=O)c1ccc([N+](=O)[O-])cc1,3.4
17,CC(=NNC(=O)c1ccccc1)c1cnccn1,1.9
18,CCOC(=O)N1COCc2c1ccc1cc3ccc4c(c3nc21)COCN4C(=O)OCC,2.5
19,CC(=O)c1c(C)nc2c3c(c(C(=O)N(C)C)cn12)CCC(c1ccccc1)O3 (centres undefined),2.75
20,CC(C)=CCCC(C)=CCCC(=CCCC(C)=CCO)CO,4.7
21,CN(C)c1cccc2nc(N)nc(N)c12,1.65
22,CC(C)=CCNc1ncnc2nc[nH]c12,2.2
23,Cc1c(O)c(=O)ccn1CCCOC(=O)c1cccnc1,-0.25
24,CCCCCCCCNC1=NS(=O)N=C1NCCSCc1ccc(CN(C)C)o1 (centres undefined),4.47
25,CCOP(=O)(OCC)C(C)(C)[N+]([O-])=Cc1ccc(Cl)cc1,2.29

row,SMILES,logP
1,C#C[C@]1(O)CC[C@H]2[C@@H]3CCC4=CC(=O)CC[C@@H]4[C@H]3C(=C)C[C@@]21CC,3.16
2,COc1ccc(CCN(C)CCCC(C#N)(c2cc(OC)c(OC)c(OC)c2)C(C)C)cc1OC (centres undefined),3.71
3,O=C1C=C(c2ccc(Cl)cc2)C(=O)N1c1ccc(Cl)cc1,3
4,CCN(CC)CC(=O)Nc1ccccc1,2.49
5,Cc1cc(=O)[nH]c2c1cc(C)c1occ(C)c12,3.13
6,C=Cn1c([N+](=O)[O-])cnc1C=Cc1ccc(C(=O)O)cc1,2.68
7,COc1coc(CSC(=S)N(C)C)cc1=O,1.14
8,CC(=O)OCCCOC(=O)C(C)c1cccc(C(=O)c2ccccc2)c1 (centres undefined),3.6
9,CCCCCCOc1ccc(CC(=O)O)cc1OC,3.3
10,CCC(C)C(N)C(=O)NC(C(=O)NC(C(=O)O)C(C)O)C(C)CC (stereo not drawn) (H-Ile-Ile-Thr-OH; configuration not given here),-2.23
11,Cc1cccc(Nc2ccncc2S(=O)(=O)NC(=O)NC(C)C)c1,3.37
12,Nc1nc(O)nc(Nc2ccccc2)n1,1.9
13,COc1cccc(C2CCCCC2=O)c1 (centres undefined),2.42
14,O=c1ccc2ccc3occc3c2[nH]1,1.82
15,Cc1oc2ccc3ccc(=O)oc3c2c1C,2.97
16,O=C(O)c1cc(O)c2ccc(Cl)cc2n1,1.05
17,Cc1nc2c3c(c(C(N)=O)cn2c1C)CCC(c1ccccc1)O3 (centres undefined),3.5
18,CCNc1nc(O)nc(NCC)n1,2.29
19,CNC(=O)Oc1ccc2c(c1)CC(c1ccc(OC)cc1)C(OC(C)=O)C(=O)N2CCN(C)C (centres undefined),2.31
20,COC1CC(OC2C(O)CC(OC3CCC4(C)C(CCC5C4CC(O)C4(C)C(C6=CC(=O)OC6)CCC54O)C3)OC2C)OC(C)C1OC1CC(O)C(O)C(C)O1 (centres undefined),1.8
21,CCOP(=O)(Oc1ccc(C#N)cc1)c1ccccc1 (centres undefined),2.44
22,CC(C)CCNc1ncnc2nc[nH]c12,2.51
23,CNCCC=Cc1cccnc1,1.13
24,CN(C(=O)CO)c1c(I)c(C(=O)NCC(O)CO)c(I)c(C(=O)NCC(O)CO)c1I (centres undefined),-2.79
25,CC(C)CC(N)C(=O)NC(CC(C)C)C(=O)N1CCCC1C(=O)O (stereo not drawn) (H-Leu-Leu-Pro-OH; configuration not given here),-1.58

row,SMILES,logP
1,CN(c1ccc2cc3ccc4c(c3nc2c1)COCN4)S(C)(=O)=O,1.54
2,Brc1ccc2ccc3cccc4ccc1c2c34,5.81
3,COc1ccc(C2Cc3c(C#N)cccc3N(CCN(C)C)C(=O)C2OC(C)=O)cc1 (centres undefined),3.3
4,Clc1cc(Cl)c2c(c1)Oc1c(ccc(Cl)c1Cl)O2,6.43
5,OCCCCCCCNc1[nH]cnc2ncnc1-2,1.73
6,CCCOC(=O)C=COc1ccccc1,3.72
7,C[N+](C)([O-])CCCc1ccccc1,-0.04
8,Cc1ccc(OCC2CN=C(N)O2)c(C)c1 (centres undefined),2.23
9,CC(C)n1cccc(O)c1=O,0.79
10,CCCCCCNCCO,1.67
11,NC1=NCC(COc2cccc(Cl)c2)O1 (centres undefined),2.09
12,COC(=O)C=CCn1cnc([N+](=O)[O-])n1,0.09
13,NC(=O)C1CN(CC(=O)Nc2c(Cl)cccc2Cl)CCN1CCCC(c1ccc(F)cc1)c1ccc(F)cc1 (centres undefined),5.26
14,COc1cccc2c1CCC(N)C2C (centres undefined),2.26
15,CON(C)C(=O)Nc1cccc(CO)c1,0.62
16,COc1cc(OC)nc(Oc2cccc(Oc3ccccc3)c2C(=O)O)n1,3.43
17,Cc1ccc2c(c1)COP(=O)(OCC1C=CC(n3cc(C)c(=O)[nH]c3=O)O1)O2 (centres undefined),0.73
18,CC(C)OC(=O)CC(C(=O)OC(C)C)S(=O)(=O)c1ccc([N+](=O)[O-])cc1 (centres undefined),2.18
19,O=C1CN=C(c2ccccc2)c2ccc(C(F)(F)F)cc2N1,3.18
20,NC1=NCC(COc2ccccc2Cc2ccccc2)O1 (centres undefined),3.05
21,COc1ccccc1CNC1CCCNC1c1ccccc1 (centres undefined),3.1
22,CC(NC(=O)C(C)NC(=O)C(N)C(C)C)C(=O)NC(Cc1ccccc1)C(=O)O (centres undefined) (H-VAAF-OH; configuration not given here),-1.91
23,FC(F)(F)c1ccccc1CNc1[nH]cnc2ncnc1-2,3.04
24,CS(=O)(=O)Nc1cccc(Cn2cnc3ccccc32)c1,2.08
